From patent publication US20120059024A1 (priority 2009, published 2012)
“And” between values parts separate entries of the source, which are not always exact repeats. Identical values can stand only once. Like-named read-outs stand apart in the source and are kept apart here.

How the values were obtained:
[1] = Mean Equivalent Daily Dose (MEDD) conversion table for opioids; assay type: in vivo
[2] = in vivo, cited from earlier work
[3] = system: young adult Wistar rats; details: intraperitoneal
[4] = system: human volunteers; test: Human drug liking study; details: any dose of oxycodone alone vs same dose combined with 100 mg flupirtine, oral capsule

SMILES | MEDD-Factor ([2]; iv) | MEDD-Factor ([2]; po) | MEDD-Factor ([2]; sc) | other results
CN1CC[C@]23c4c5ccc(O)c4O[C@H]2[C@@H](O)C=C[C@H]3[C@H]1C5 [Morphine] | 1 | 0.4 | 1 | dose equivalent to a 100 mg dose of morphine administered orally ([1]; administered intravenously): 40 mg; sedation ([3]; 1.6 mg/kg morphine): not sedating
COc1ccc2c3c1O[C@H]1[C@@H](O)C=C[C@H]4[C@@H](C2)N(C)CC[C@@]341 [Codeine] | – | 0.05 | 0.1 | MEDD-Factor [2]: 0.1 and 0.05
COc1cccc(C2(O)CCCCC2CN(C)C)c1 (stereo not drawn) [Tramadol] | – | 0.05 | 0.1 | –
CC(=O)Oc1ccc2c3c1O[C@H]1[C@@H](OC(C)=O)C=C[C@H]4[C@@H](C2)N(C)CC[C@@]341 [Diamorphine] | – | 0.65 | 1.3 | –
CCOC(=O)Nc1ccc(NCc2ccc(F)cc2)nc1N [flupirtine] | – | – | – | sedation ([3]; 10 mg/kg flupirtine, criteria of Goodchild et al. 2008): non-sedating; sedation ([3]; 20 mg/kg flupirtine, criteria of Goodchild et al. 2008): sedating
COc1ccc2c3c1O[C@H]1C(=O)CC[C@H]4[C@@H](C2)N(C)CC[C@]314 [Hydrocodone] | – | 0.4 | – | –
CN1CC[C@]23CCCC[C@H]2[C@H]1Cc1ccc(O)cc13 [Levo-dromoran] | – | – | 5 | MEDD-Factor [2]: 0.25
COc1ccc2c3c1O[C@H]1C(=O)CC[C@@]4(O)[C@@H](C2)N(C)CC[C@]314 [Oxycodone] | – | 0.63 | 1.5 | subject preference (drug liking) [4]: preferred to, or no less preferred to; dose equivalent to a 100 mg dose of morphine administered orally ([1]; orally administered): 63 mg
CCC(=O)C(CC(C)N(C)C)(c1ccccc1)c1ccccc1 (stereo not drawn) [Methadone] | 8 | 4 | 8 | –
CCOC(=O)C1(c2ccccc2)CCN(C)CC1 [Meperidine] | 0.1 | 0.05 | 0.1 | –
